# Assays:
# WT HIV-1 (IIIB) = assay: microbe, parasite or virus in culture; format: cell-based; settings: for EC50: Human immunodeficiency virus 1, IIIB, MT4, read-out: EC50 IIIB; for SI IIIB: ratio of CC50/EC50
# HIV-2 strain (ROD) = assay: Anti-HIV-2; format: cell-based; settings: for EC50: Human immunodeficiency virus 2, MT4, read-out: EC50 ROD; for SI ROD: ratio of CC50/EC50
# [1] = system: HIV-1 L100I mutant strain; assay: microbe, parasite or virus in culture; format: cell-based; settings: for SI L100I: CC50/EC50; for EC50: Human immunodeficiency virus 1, MT4, read-out: EC50 L100I; for RF L100I: ratio of EC50 (resistant viral strain)/EC50 (wild-type viral strain)
# [2] = system: HIV-1 K103N mutant strain; assay: microbe, parasite or virus in culture; format: cell-based; settings: for SI K103N: CC50/EC50; for EC50: Human immunodeficiency virus 1, MT4, read-out: EC50 K103N; for RF K103N: ratio of EC50 (resistant viral strain)/EC50 (wild-type viral strain)
# [3] = system: HIV-1 Y181C mutant strain; assay: microbe, parasite or virus in culture; format: cell-based; settings: for SI Y181C: CC50/EC50; for EC50: Human immunodeficiency virus 1, MT4, read-out: EC50 Y181C; for RF Y181C: ratio of EC50 (resistant viral strain)/EC50 (wild-type viral strain)
# [4] = system: HIV-1 Y188L mutant strain; assay: microbe, parasite or virus in culture; format: cell-based; settings: for SI Y188L: CC50/EC50; for EC50: Human immunodeficiency virus 1, MT4, read-out: EC50 Y188L; for RF Y188L: ratio of EC50 (resistant viral strain)/EC50 (wild-type viral strain)
# [5] = system: HIV-1 E138K mutant strain; assay: microbe, parasite or virus in culture; format: cell-based; settings: for SI E138K: CC50/EC50; for EC50: Human immunodeficiency virus 1, MT4, read-out: EC50 E138K; for RF E138K: ratio of EC50 (resistant viral strain)/EC50 (wild-type viral strain)
# [6] = system: HIV-1 F227L + V106A double-mutant strain; assay: microbe, parasite or virus in culture; format: cell-based; settings: for SI F227L + V106A: CC50/EC50; for EC50: Human immunodeficiency virus 1, MT4, read-out: EC50 F227L + V106A; for RF F227L + V106A: ratio of EC50 (resistant viral strain)/EC50 (wild-type viral strain)
# [7] = system: HIV-1 RES056 (K103N + Y181C) double-mutant strain; assay: microbe, parasite or virus in culture; format: cell-based; settings: for SI RES056: CC50/EC50; for EC50: Human immunodeficiency virus 1, MT4, read-out: EC50 RES056; for RF RES056: ratio of EC50 (resistant viral strain)/EC50 (wild-type viral strain)
# WT HIV-1 RT = WT HIV-1 RT (Human immunodeficiency virus type 1 group M subtype B, UniProt P03366); assay: Recombinant HIV-1 RT inhibitory assay; format: biochemical
# [8] = Cytotoxicity in mock-infected MT-4 cell cultures, MTT method; settings: human, mock-infected MT-4 cells
Compound,EC50 (WT HIV-1 (IIIB)) [nM],SI IIIB (WT HIV-1 (IIIB)),EC50 (HIV-2 strain (ROD)) [nM],SI ROD (HIV-2 strain (ROD)),SI L100I [1],EC50 [1] [nM],RF L100I [1],SI K103N [2],EC50 [2] [nM],RF K103N [2],SI Y181C [3],EC50 [3] [nM],RF Y181C [3],SI Y188L [4],EC50 [4] [nM],RF Y188L [4],SI E138K [5],EC50 [5] [nM],RF E138K [5],SI F227L + V106A [6],further results
"Cc1cc(-c2cccc(C#N)c2)cc(C)c1Oc1nc(NC2CCN(Cc3ccc(S(N)(=O)=O)cc3)CC2)nc2ccsc12 [Compound 27, 4-((4-((4-((3′-Cyano-3,5-dimethyl-[1,1′-biphenyl]-4-yl)oxy)thieno[3,2-d]pyrimidin-2-yl)amino)piperidin-1-yl)methyl)benzenesulfonamide]",13.3 ± 2.6,1054,4920 ± 2250,3,569,24.6 ± 4.97,1.9,1639,8.56 ± 1.69,0.6,432,32.4 ± 4.07,2.4,256,54.7 ± 2.26,4.1,402,34.8 ± 9.28,2.6,285,EC50 [6]: 49.2 ± 8.26 nM; RF F227L + V106A [6]: 3.7; SI RES056 [7]: 40; EC50 [7]: 347 ± 75.9 nM; RF RES056 [7]: 26.1; IC50 (WT HIV-1 RT): 207 ± 6 nM; CC50 at 5 days [8]: 14000 ± 8280 nM
"Cc1cc(-c2cccc(C#N)c2)cc(C)c1Oc1nc(NC2CCN(Cc3ccc(C(N)=O)cc3)CC2)nc2ccsc12 [Compound 28, 4-((4-((4-((3′-Cyano-3,5-dimethyl-[1,1′-biphenyl]-4-yl)oxy)thieno[3,2-d]pyrimidin-2-yl)amino)piperidin-1-yl)methyl)benzamide]",23.4 ± 16.9,178,> 4170,<1,83,50.2 ± 10.3,2.1,208,20 ± 1.2,0.9,81,51.6 ± 4.32,2.2,57,73.4 ± 5.16,3.1,99,41.9 ± 4.56,1.8,26,EC50 [6]: 157 ± 6.6 nM; RF F227L + V106A [6]: 6.7; SI RES056 [7]: 10; EC50 [7]: 402 ± 41.9 nM; RF RES056 [7]: 17.2; IC50 (WT HIV-1 RT): 202 ± 20 nM; CC50 at 5 days [8]: 4160 ± 1750 nM
"Cc1cc(-c2ccc(N(C)C)cc2)cc(C)c1Oc1nc(NC2CCN(Cc3ccc(S(N)(=O)=O)cc3)CC2)nc2ccsc12 [Compound 29, 4-((4-((4-((4'-(Dimethylamino)-3,5-dimethyl-[1,1′-biphenyl]-4-yl)oxy)thieno[3,2-d]pyrimidin-2-yl)amino)piperidin-1-yl)methyl)benzenesulfonamide]",79.2 ± 48.7,232,> 18400,<1,74,247 ± 4.5,3.1,189,97.2 ± 3.07,1.2,71,260 ± 30.2,3.3,68,269 ± 30,3.4,100,183 ± 19.4,2.3,131,EC50 [6]: 140 ± 1.31 nM; RF F227L + V106A [6]: 1.8; SI RES056 [7]: 11; EC50 [7]: 1680 ± 388 nM; RF RES056 [7]: 21.2; IC50 (WT HIV-1 RT): 477 ± 9 nM; CC50 at 5 days [8]: 18300 ± 4500 nM
"Cc1cc(-c2ccc(N(C)C)cc2)cc(C)c1Oc1nc(NC2CCN(Cc3ccc(C(N)=O)cc3)CC2)nc2ccsc12 [Compound 30, 4-((4-((4-((4'-(Dimethylamino)-3,5-dimethyl-[1,1′-biphenyl]-4-yl)oxy)thieno[3,2-d]pyrimidin-2-yl)amino)piperidin-1-yl)methyl)benzamide]",176 ± 26.4,134,> 23500,<1,21,1120 ± 543,6.3,135,173 ± 46.3,1.0,40,585 ± 33.3,3.3,42,556 ± 57.4,3.2,96,245 ± 173,1.4,19,EC50 [6]: 1250 ± 804 nM; RF F227L + V106A [6]: 7.1; SI RES056 [7]: < 1; EC50 [7]: > 23500 nM; RF RES056 [7]: > 133; IC50 (WT HIV-1 RT): 473 ± 59 nM; CC50 at 5 days [8]: 23500 ± 380 nM
"Cc1cc(-c2cccc(N(C)C)c2)cc(C)c1Oc1nc(NC2CCN(Cc3ccc(S(N)(=O)=O)cc3)CC2)nc2ccsc12 [Compound 31, 4-((4-((4-((3'-(Dimethylamino)-3,5-dimethyl-[1,1′-biphenyl]-4-yl)oxy)thieno[3,2-d]pyrimidin-2-yl)amino)piperidin-1-yl)methyl)benzenesulfonamide]",882 ± 323,125,> 110000,<1,46,2400 ± 256,2.7,161,685 ± 0.21,0.8,48,2300 ± 413,2.6,55,1990 ± 46.5,2.3,112,979 ± 185,1.1,51,EC50 [6]: 2160 ± 298 nM; RF F227L + V106A [6]: 2.4; SI RES056 [7]: 4; EC50 [7]: 29600 nM; RF RES056 [7]: 33.5; IC50 (WT HIV-1 RT): 1680 ± 56 nM; CC50 at 5 days [8]: 110000 ± 1460 nM
"Cc1cc(-c2cccc(N(C)C)c2)cc(C)c1Oc1nc(NC2CCN(Cc3ccc(C(N)=O)cc3)CC2)nc2ccsc12 [Compound 32, 4-((4-((4-((3'-(Dimethylamino)-3,5-dimethyl-[1,1′-biphenyl]-4-yl)oxy)thieno[3,2-d]pyrimidin-2-yl)amino)piperidin-1-yl)methyl)benzamide]",163 ± 57.8,121,4660 ± 824,4,17,1140 ± 99.2,6.9,93,212 ± 7.34,1.3,32,626 ± 39.2,3.8,36,552 ± 45.6,3.4,100,198 ± 34.2,1.2,25,EC50 [6]: 783 ± 196 nM; RF F227L + V106A [6]: 4.8; SI RES056 [7]: 5; EC50 [7]: 4300 ± 1540 nM; RF RES056 [7]: 26.2; IC50 (WT HIV-1 RT): 271 ± 16 nM; CC50 at 5 days [8]: 19800 ± 4470 nM
